Here are results for 31 compounds from patent US20260028348A1, “MODULATORS OF TNF-ALPHA ACTIVITY” (Forward Therapeutics, Inc., priority 2023, published 2026).

This assay has as its system HEK Blue™ TNFα reporter cells. Description: TNF-α Induced HEK Blue Cellular Assay. It counts as cell-based. As to conditions: TNF-α stimulated HEK Blue TNFα reporter cells, 24 hrs, secreted alkaline phosphatase (QUANTI-Blue, 620 nm). Here is the method: Test articles were diluted in DMSO and serially diluted into 384 well assay plate (Corning 3765), at final concentrations ranging from […] to 0.5 nM. HEK Blue™ TNFα reporter cells were added at a final density of 10,000 cell per well in assay media [DMEM (Gibco, cat #21063-029), 10% fetal bovine serum (ExcelBio, cat #FND500), 1% Penicillin-Streptomycin (Solarbio, cat #P1400-100]. TNF-α (R&D 210-TA-020/CF) was then added to the assay plate at a final concentration of […]. This plate was then incubated for 24 hrs at 37° C. and 5% CO2. Secreted alkaline phosphatase expression was then measured using QUANTI-Blue™(Invivogen), according to manufacturer instructions and read on an Envision microplate reader at 620 nm.
Inhibition data for test compound over a range of concentration was plotted as percentage inhibition of the test compound (100%=maximum inhibition). IC50 values were determined after correcting for background [(sample read-mean of low control)/(mean of high control-mean of low control)] whereby the low control is DMSO without stimulation and high control is DMSO with stimulation. The IC50 is defined as the concentration of test compound which produces […] and was quantified using the 4 parameter logistic equation to fit the data.

Broadly, the IC50 is the midpoint of a concentration-inhibition curve. A lower IC50 goes with greater potency in that assay. For the compound `[2H]C([2H])([2H])N1C(=O)c2cccc(OC(F)F)c2[C@H]2C[C@@H]1c1nc3ccc(-c4cnc5c(c4)COC[C@]5(C)O)cc3n12` (single isomer, unassigned) [Example 38], the IC50 lay in the range of 10000 to 30000 nM.

`CN1C(=O)c2cccc(OC(F)F)c2[C@H]2C[C@@H]1c1nc3ccc(-c4ccc5c(c4)NC(=O)C5(C)O)cc3n12` (stereo partly drawn) [Example 21, (1R,11R)-18-(difluoromethoxy)-5-(3-hydroxy-3-methyl-2-oxo-1H-indol-6-yl)-12-methyl-2,9,12-triazapentacyclo[9.8.1.0^{2,10}.0^{3,8}.0^{14,19}]icosa-3(8),4,6,9,14(19),15,17-heptaen-13-one] yielded a concentration for half-maximal inhibition (IC50) of less than 100 nM. `CN1C(=O)c2cccc(OC(F)F)c2[C@H]2C[C@@H]1c1nc3ccc(-c4cnc5c(c4)CC[C@@]5(C)O)cc3n12` (single isomer, unassigned) [Example 11] came in with a half-inhibitory concentration (IC50) of less than 100 nM. Next, `[2H]C([2H])([2H])N1C(=O)c2cccc(OC(F)F)c2[C@H]2C[C@@H]1c1nc3ccc(-c4cnc5c(c4)OC[C@@]5(C)N)c(F)c3n12` (single isomer, unassigned) [Example 65]: less than 100 nM.

Consider `CN1C(=O)c2cccc(OC(F)F)c2[C@H]2C[C@@H]1c1nc3ccc(-c4cnc5c(c4)CC[C@@]5(C)N)cc3n12` (single isomer, unassigned) [Example 22], for which the concentration for half-maximal inhibition (IC50) is less than 100 nM.

For `[2H]C([2H])([2H])N1C(=O)c2cccc(OC(F)F)c2[C@H]2C[C@@H]1c1nc3ccc(-c4cnc5c(c4)OCC[C@]5(C)O)nc3n12` (single isomer, unassigned) [Example 70], the IC50 was 100 to 1000 nM. Next, `[2H]C([2H])([2H])N1C(=O)c2cccc(OC(F)F)c2[C@H]2C[C@@H]1c1nc3ccc(-c4cnc5c(c4)CC[C@]5(C)O)c(F)c3n12` (single isomer, unassigned) [Example 50]: less than 100 nM; `CN1C(=O)c2cccc(OC(F)F)c2[C@H]2C[C@@H]1c1nc3ccc(-c4ccc5c(c4)NC(=O)C5(C)N)cc3n12` (stereo partly drawn) [Example 31, (7R,14R)-11-(3-amino-3-methyl-2-oxoindolin-6-yl)-1-(difluoromethoxy)-6-methyl-6,7-dihydro-7,14-methanobenzo[f]benzo[4,5]imidazo[1,2-a][1,4]diazocin-5(14H)-one]: less than 100 nM; `CN1C(=O)c2cccc(OC(F)F)c2[C@H]2C[C@@H]1c1nc3ccc(-c4cnc5c(c4)OCC[C@@H]5N)cc3n12` [Example 19, (1R,11R)-5-[(4S)-4-amino-2H,3H,4H-pyrano[3,2-b]pyridin-7-yl]-18-(difluoromethoxy)-12-methyl-2,9,12-triazapentacyclo[9.8.1.0^{2,10}.0^{3,8}.0^{14,19}]icosa-3(8),4,6,9,14(19),15,17-heptaen-13-one]: less than 100 nM. In turn, `[2H]C([2H])([2H])N1C(=O)c2cccc(OC(F)F)c2[C@H]2C[C@@H]1c1nc3ccc(-c4cnc5c(c4)OC[C@@]5(C)N)nc3n12` (single isomer, unassigned) [Example 59] yielded a concentration for half-maximal inhibition (IC50) of 10000 to 30000 nM. In the case of `[2H]C([2H])([2H])N1C(=O)c2cccc(OC(F)F)c2[C@H]2C[C@@H]1c1nc3ccc(-c4cnc5c(c4)OCC[C@@]5(C)O)cc3n12` (single isomer, unassigned) [Example 35], the concentration for half-maximal inhibition (IC50) was less than 100 nM. `N[C@H]1COc2cc(-c3ccc4nc5n(c4c3)[C@@H]3C[C@H]5NC(=O)c4cccc(OC(F)F)c43)ccc21` [Example 4, (1R,11R)-5-[(3R)-3-amino-2,3-dihydro-1-benzofuran-6-yl]-18-(difluoromethoxy)-2,9,12-triazapentacyclo[9.8.1.0^{2,10}.0^{3,8}.0^{14,19}]icosa-3(8),4,6,9,14(19),15,17-heptaen-13-one] showed a concentration for half-maximal inhibition (IC50) of less than 100 nM. Next, `[2H]C([2H])([2H])N1C(=O)c2cccc(OC(F)F)c2[C@H]2C[C@@H]1c1nc3cc(F)c(-c4cnc5c(c4)CC[C@@]5(C)N)cc3n12` (single isomer, unassigned) [Example 26]: less than 100 nM. Next, `[2H]C([2H])([2H])N1C(=O)c2cccc(OC(F)F)c2[C@H]2C[C@@H]1c1nc3ccc(-c4cnc5c(c4)OC[C@@]5(C)N)cc3n12` (single isomer, unassigned) [Example 56]: less than 100 nM; `[2H]C([2H])([2H])N1C(=O)c2cccc(OC(F)F)c2[C@H]2C[C@@H]1c1nc3ccc(-c4cnc5c(c4)OC[C@]5(C)O)cc3n12` (single isomer, unassigned) [Example 46]: less than 100 nM.

Turning to `[2H]C([2H])([2H])N1C(=O)c2cccc(OC(F)F)c2[C@H]2C[C@@H]1c1nc3ccc(-c4cnc5c(c4)OC[C@]5(C)N)cc3n12` (single isomer, unassigned) [Example 55], the IC50 is less than 100 nM. Next, `N[C@H]1CCc2cc(-c3ccc4nc5n(c4c3)[C@@H]3C[C@H]5NC(=O)c4cccc(OC(F)F)c43)cc(F)c21` [Example 13, (1R,11R)-5-[(1S)-1-amino-7-fluoro-2,3-dihydro-1H-inden-5-yl]-18-(difluoromethoxy)-2,9,12-triazapentacyclo[9.8.1.0^{2,10}.0^{3,8}.0^{14,19}]icosa-3(8),4,6,9,14(19),15,17-heptaen-13-one]: less than 100 nM. Next, `[2H]C([2H])([2H])N1C(=O)c2cccc(OC(F)F)c2[C@H]2C[C@@H]1c1nc3ccc(-c4cnc5c(c4)CC[C@]5(C)O)nc3n12` (single isomer, unassigned) [Example 68]: 10000 to 30000 nM; `[2H]C([2H])([2H])N1C(=O)c2cccc(OC(F)F)c2[C@H]2C[C@@H]1c1nc3ccc(-c4cnc5c(c4)CC[C@@]5(C)O)cc3n12` (single isomer, unassigned) [Example 33]: less than 100 nM; `[2H]C([2H])([2H])N1C(=O)c2cccc(OC(F)F)c2[C@H]2C[C@@H]1c1nc3ccc(-c4cnc5c(c4)OC[C@]5(C)N)c(F)c3n12` (single isomer, unassigned) [Example 66]: less than 100 nM.

`[2H]C([2H])([2H])N1C(=O)c2cccc(OC(F)F)c2[C@H]2C[C@@H]1c1nc3ccc(-c4cnc5c(c4)CC[C@@]5(C)O)nc3n12` (single isomer, unassigned) [Example 67] showed an IC50 of 10000 to 30000 nM. Next, `[2H]C([2H])([2H])N1C(=O)c2cccc(OC(F)F)c2[C@H]2C[C@@H]1c1nc3ccc(-c4cnc5c(c4)OCC[C@@]5(C)O)c(F)c3n12` (single isomer, unassigned) [Example 51]: less than 100 nM. As for `[2H]C([2H])([2H])N1C(=O)c2cccc(OC(F)F)c2[C@H]2C[C@@H]1c1nc3ccc(-c4cnc5c(c4)CC[C@]5(C)O)cc3n12` (single isomer, unassigned) [Example 32], the IC50 is less than 100 nM. Next, `[2H]C([2H])([2H])N1C(=O)c2cccc(OC(F)F)c2[C@H]2C[C@@H]1c1nc3ccc(-c4cnc5c(c4)CC[C@@]5(C)O)c(F)c3n12` (single isomer, unassigned) [Example 49]: 100 to 1000 nM; `CN1C(=O)c2cccc(OC(F)F)c2[C@H]2C[C@@H]1c1nc3ccc(-c4cnc5c(c4)CNC5=O)cc3n12` [Example 18, (1R,11R)-18-(difluoromethoxy)-12-methyl-5-{7-oxo-5H,6H-pyrrolo[3,4-b]pyridin-3-yl}-2,9,12-triazapentacyclo[9.8.1.0^{2,10}.0^{3,8}.0^{14,19}]icosa-3(8),4,6,9,14(19),15,17-heptaen-13-one]: 100 to 1000 nM; `N[C@H]1COc2cc(-c3ccc4nc5n(c4c3)[C@@H]3C[C@H]5N(C4CC4)C(=O)c4cccc(OC(F)F)c43)ccc21` [Example 14, (1R,11R)-5-[(3R)-3-amino-2,3-dihydro-1-benzofuran-6-yl]-12-cyclopropyl-18-(difluoromethoxy)-2,9,12-triazapentacyclo[9.8.1.0^{2,10}.0^{3,8}.0^{14,19}]icosa-3(8),4,6,9,14(19),15,17-heptaen-13-one]: less than 100 nM. Next, `CC1(O)CCc2cc(-c3ccc4nc5n(c4c3)[C@@H]3C[C@H]5NC(=O)c4cccc(OC(F)F)c43)cnc21` (stereo partly drawn) [Example 3, (1R,11R)-18-(difluoromethoxy)-5-{7-hydroxy-7-methyl-5H,6H-cyclopenta[b]pyridin-3-yl}-2,9,12-triazapentacyclo[9.8.1.0^{2,10}.0^{3,8}.0^{14,19}]icosa-3(8),4,6,9,14(19),15,17-heptaen-13-one]: less than 100 nM; `CN1Cc2cc(-c3ccc4nc5n(c4c3)[C@@H]3C[C@H]5N(C)C(=O)c4cccc(OC(F)F)c43)cnc2C1=O` [Example 20, (1R,11R)-18-(difluoromethoxy)-12-methyl-5-{6-methyl-7-oxo-5H-pyrrolo[3,4-b]pyridin-3-yl}-2,9,12-triazapentacyclo[9.8.1.0^{2,10}.0^{3,8}.0^{14,19}]icosa-3(8),4,6,9,14(19),15,17-heptaen-13-one]: less than 100 nM. For the compound `[2H]C([2H])([2H])N1C(=O)c2cccc(OC(F)F)c2[C@H]2C[C@@H]1c1nc3ccc(-c4cnc5c(c4)CC[C@@]5(C)N)cc3n12` (single isomer, unassigned) [Example 29], the IC50 was less than 100 nM.

Compound `CN1C(=O)c2cccc(OC(F)F)c2[C@H]2C[C@@H]1c1nc3ccc(-c4cnc5c(c4)OC[C@]5(C)N)cc3n12` (single isomer, unassigned) [Example 57] came in with a concentration for half-maximal inhibition (IC50) of less than 100 nM. `[2H]C([2H])([2H])N1C(=O)c2cccc(OC(F)F)c2[C@H]2C[C@@H]1c1nc3ccc(-c4cnc5c(c4)OC[C@@]5(C)O)nc3n12` (single isomer, unassigned) [Example 63] registered an IC50 of 100 to 1000 nM.
